Values of other authors as cited in patent publication US12497429B2, “Saponin-based vaccine adjuvants” (priority 2018, dated 2025).

Settings: compared to vaccine alone

monophosphoryl lipid A [MPL]
boost of serum Ab titers: 10-20 fold
